Reference: patent publication USRE42152E1, “Aromatic-linked polyamine macrocyclic compounds with anti-HIV activity” (Genzyme Corporation, priority 1992, dated 2011)
Values after ≈ are worked out from the molar mass of the structure shown. Like-named read-outs stand apart in the source and are kept apart here.

Legend:
Format in all cases: cell-based
[1] = test system: HIV-1 (HTLV-IIIB); experiment: microbe, parasite or virus in culture; conditions: MT-4 cells, 100 CCID50, 5 days, MTT
[2] = test system: HIV-2 (LAV-2 ROD); experiment: MTT anti-viral screen, MT-4 cells challenged with HIV-2; conditions: MT-4 cells, 100 CCID50, 5 days, MTT
[3] = test system: MT-4 cells; experiment: Cytotoxicity by MTT method in MT-4 cells
[4] = MT-4 cells, 5 days, MTT, HIV-1 part of table
[5] = MT-4 cells, 5 days, MTT, HIV-2 part of table

Row | IC50 HIV-1 (IIIB) [1] | IC50 HIV-2 (ROD) [2] | Molecule | CC50 (HIV-1 (IIIB)) [3] | CC50 (HIV-2 (ROD)) [3] | CC50 (HIV-1 (IIIB)) [3, 4] | CC50 (HIV-2 (ROD)) [3, 5]
1 | 0.16 µg/mL | 0.22 µg/mL | Br.Br.Br.Br.Br.Br.Br.Br.O.O.O.O.c1cc(CN2CCCNCCNCCCNCC2)cc(-c2cccc(CN3CCCNCCNCCCNCC3)c2)c1 [Compound J, 1,1′-[3,3′-Biphenylene-bis-(methylene)]-bis-1,4,8,11-tetraazacyclotetradecane octahydrobromide tetrahydrate] | >200 µg/mL | >200 µg/mL |  | 
2 | 0.01 µg/mL | 0.07 µg/mL | Br.Br.Br.Br.Br.Br.Br.Br.O.O.O.O.O.O.c1cc(CN2CCCNCCNCCCNCC2)ccc1CN1CCCNCCNCCNCCC1 [Compound N, 1,11′-[1,4-Phenylene-bis-(methylene)]-1,4,8,11-tetraazacyclotetradecane-1,4,7,11-tetraazacydotetradecane octahydrobromide hexahydrate] | >500 µg/mL | >500 µg/mL |  | 
3 | 0.04 µg/mL | 0.09 µg/mL | Br.Br.Br.Br.Br.Br.Br.Br.Br.O.O.c1ncc(CN2CCCNCCNCCCNCC2)cc1CN1CCCNCCNCCCNCC1 [Compound P, 1,1′[3,5-Pyridinebis-(methylene)]-bis-1,4,8,11-tetraazacyclotetradecane nonahydrobromide dihydrate] | >500 µg/mL | >500 µg/mL |  | 

The next lines start with the molecule.

Row | Molecule | IC50 HIV-1 (IIIB) [1] | IC50 HIV-2 (ROD) [2] | CC50 (HIV-1 (IIIB)) [3] | CC50 (HIV-2 (ROD)) [3] | CC50 (HIV-1 (IIIB)) [3, 4] | CC50 (HIV-2 (ROD)) [3, 5]
4 | 1,1′-[1,4-Phenylene-bis-(methylene)]-bis-1,4,8,11-tetraazacyclotetradecane copper diacetate hexahydrate [Compound G] | 0.018 µg/mL | 0.027 µg/mL |  |  | >200 µg/mL | >200 µg/mL
5 | Br.Br.Br.Br.Br.Br.Br.Br.O.O.O.O.c1cc(CN2CCCNCCNCCCNCC2)nc(CN2CCCNCCNCCCNCC2)c1 [Compound O, 1,1′-[2,6-Pyridinebis-(methylene)]-bis-1,4,8,11-tetraazacyclotetradecane octahydrobromide tetrahydrate] | 0.03 µg/mL | 0.08 µg/mL | >500 µg/mL | >500 µg/mL |  | 
6 | Br.Br.Br.Br.Br.Br.Br.Br.Br.Br.O.O.O.O.O.c1cc(CN2CCCNCCNCCCNCC2)cc(-c2cc(CN3CCCNCCNCCCNCC3)ccn2)n1 [Compound K, 1,1′-[4,4′-(2,2′-Bipyridine)-bis-(methyl)]-bis-1,4,8,11-tetraazacyclotetradecane decahydrobromide pentahydrate] | 0.38 µg/mL | 0.35 µg/mL |  |  | 117 µg/mL | 117 µg/mL
7 | Br.Br.Br.Br.Br.Br.Br.Br.c1cc(CN2CCCNCCNCCCNCC2)sc1CN1CCCNCCNCCCNCC1 [Compound T, 1,1′-[2,5-Thophenebis-(methylene)]-bis-1,4,8,11-tetraazacyclotetradecane octahydrobromide] | 0.01 µg/mL | 0.02 µg/mL | >500 µg/mL | >500 µg/mL |  | 
8 | c1ccc2c(CN3CCCNCCNCCCNCC3)ccc(CN3CCCNCCNCCCNCC3)c2c1 [E, 1,1′-[1,4-naphthylenebis(methylene)]bis-1,4,8,11-tetraazacyclotetradecane] | 0.07 µg/mL (≈ 0.127 µM) | 0.05 µg/mL (≈ 0.0904 µM) | 71 µg/mL (≈ 128 µM) | 71 µg/mL (≈ 128 µM) |  | 
9 | c1ccc(-c2cc(CN3CCCNCCNCCCNCC3)cc(CN3CCCNCCNCCCNCC3)n2)cc1 [Z, 1,1′-[6-phenyl-2,4-pyridinebis-(methylene)]-bis-1,4,8,11-tetraazacyclotetradecane] | 0.0489 µg/mL (≈ 0.0843 µM) | 0.0246 µg/mL (≈ 0.0424 µM) | >250 µg/mL | >250 µg/mL |  | 
